The record followed here is patent US20230355599A1, “BIOMARKERS FOR CBL, AND COMPOSITIONS AND METHODS FOR THEIR USE” (NURIX THERAPEUTICS, INC., priority 2022, published 2023).

For assay [1], the system named is phosphorylated ZAP70. In words: Phosphorylated ZAP70 in cynomolgus macaque CD8+ T cells from whole blood in vitro (flow cytometry). The format is cell-based. Conditions: Macaca fascicularis, T-cell, whole blood from six cynomolgus macaques, 2 hrs 37° C., 2 μg/mL anti-CD3 & anti-CD28 + crosslinker 60 minutes, read-out: Average mean EC50±standard deviation, phosphorylated ZAP70. How it is done:
(§1) To assess these candidate clinical proximal biomarkers of Cbl-b inhibition on T cells, pharmacodynamic analysis was performed. Whole blood was obtained from cynomolgus macaque donors, then incubated with increasing concentrations of Compound 23. The response to Cbl-b inhibition on phosphorylated HS1, ZAP70 and PLCγ2 was measured in CD8^+ T cells using flow cytometry. This technique is highly quantitative and can measure multiple phosphorylation markers in different cell populations within the same sample.
(§2) DMSO (Dimethyl sulfoxide) was used to reconstitute Compound 23. Final concentration of DMSO was 0.05% in media for in vitro assays. […]
(§3) Stained cells were run on an Attune NxT Acoustic Focusing Flow Cytometer (Thermo Fisher, cat. No. A29004), and data was analyzed using FlowJo (v10.6.1) and GraphPad Prism (v8.00) software. Single lymphocytes were gated for CD8^+ cells (CD45^+/CD8^+) cells, and population frequencies were calculated for each population. The data is quantified by the percent positive. […] As protein becomes phosphorylated the fluorescence increases resulting in a larger fraction of the cells entering that gate. Each population was evaluated for % positive pY759-PLCγ2, pY397-HS1 levels, pY319/Syk (Y352)-ZAP70 levels.
(Flow cytometry measures light scatter and fluorescence of single cells or particles in a stream.)

The next assay has as its system phosphorylated PLCγ2. In words: Phosphorylated PLCγ2 in circulating CD8+ T cells of patients, Phase 1 trial (flow cytometry). The format is in vivo, human. On the procedure:
[The procedure below names another target; the source lists this target under the same test.] (§4) Pharmacodynamic analysis of the proximal biomarker, phosphorylated HS1 is assessed in circulating CD8^+ T cells from patients that are being administered doses ranging from 5 to 50 mg of Compound 23 once daily and is being used to assess target engagement of Compound 23 as part of the dose/exposure-response profile. Whole blood is collected longitudinally and added into two types of TruCulture (Myriad) tubes. One tube contains media, and the second tube contains anti-CD3 and anti-CD28, which are subsequently crosslinked to induce cellular stimulation for pharmacodynamic analysis. Phosphorylated HS1 is assessed by flow cytometry pre and post dose on Cycle 1 Day 1 (C1D1) and Cycle 2 Day 1 (C2D1) to characterize single/multiple dose PD profiles.
(§5) % Maximal phosphorylated signal and % AUC are two commonly used parameters to assess the pharmacodynamic effects of drugs.
(§6) % Maximal phosphorylated signal refers to the maximum amount of a specific protein that becomes phosphorylated (i.e., modified by the addition of a phosphate group) in response to a drug or other stimulus. This parameter is often used to measure the activation of signaling pathways that are important for various cellular processes, including cell growth and differentiation, immune response, and metabolism.
(§7) % AUC, on the other hand, refers to the area under the curve (AUC) over time, expressed as a percentage of the maximum possible AUC. In summary, both % maximal phosphorylated signal and % AUC are useful parameters to assess the pharmacodynamic effects of drugs. % maximal phosphorylated signal is a measure of the activation of signaling pathways, while % AUC reflects the duration of the effect on PD signals. Both parameters can be used to evaluate the potency and duration of a drug's pharmacodynamic effects.

The test system of a further assay is phosphorylated HS1. In words: Phosphorylated HS1 in cynomolgus macaque CD8+ T cells from whole blood in vitro (flow cytometry). The format is cell-based. The following applies: Macaca fascicularis, T-cell, whole blood from six cynomolgus macaques, 2 hrs 37° C., 2 μg/mL anti-CD3 & anti-CD28 + crosslinker 60 minutes, read-out: Average mean EC50±standard deviation, phosphorylated HS1. On the procedure:
as §1, §2, §3

The subject of assay [2] is phosphorylated ZAP70. Nature of the assay: Phosphorylated ZAP70 in circulating CD8+ T cells of patients, Phase 1 trial (flow cytometry). The format is in vivo, human. On the procedure:
[The procedure below names another target; the source lists this target under the same test.] as §4, §5, §6, §7

The mark [3] stands for this setting: 5 mg once daily, n=1, cycle 1, day 1.
Setting [4] is: 15 mg once daily, n=12, cycle 1, day 1.
Where [5] appears, read: 25 mg once daily, n=7, cycle 1, day 1.
Setting [6] is: 50 mg once daily, n=2, cycle 1, day 1.

As for `C[C@H]1CCCN(Cc2cc3c(c(C(F)(F)F)c2)CN(c2cccc([C@]4(c5nncn5C)C[C@@H](C)C4)c2)C3=O)C1` [Compound 23], the EC50 – broadly, the concentration needed to bring the measured effect to its halfway point – in the assay with phosphorylated ZAP70 [1] was 173 ± 177 nM; in the assay on phosphorylated HS1 it was 230 ± 150 nM. In addition, in the assay with phosphorylated PLCγ2, the “trend of maximal or AUC % pPLCγ2 with PK” value was “No apparent trend”. Also, the “% of phosphorylated PLCγ2 expressing CD8+ T cells (maximal)” value in the assay with phosphorylated PLCγ2 (setting [3]) is 56%; in the assay with phosphorylated PLCγ2 (setting [4]), 81%; with phosphorylated PLCγ2 (setting [5]), 85%; in the assay on phosphorylated PLCγ2 (setting [6]), 75%. The “phosphorylated PLCγ2 AUC” value in the assay on phosphorylated PLCγ2 (setting [3]) is 1003; in the assay on phosphorylated PLCγ2 (setting [4]) it was 1616; in the assay with phosphorylated PLCγ2 (setting [5]), 1807; in the assay with phosphorylated PLCγ2 (setting [6]) it was 1706. Moreover, the “% of phosphorylated ZAP70 expressing CD8+ T cells (maximal)” value in the assay with phosphorylated ZAP70 [2] (setting [3]) worked out at 47%; in the assay on phosphorylated ZAP70 [2] (setting [4]), 83%; with phosphorylated ZAP70 [2] (setting [5]), 82%; in the assay with phosphorylated ZAP70 [2] (setting [6]), 85%. In addition, the “phosphorylated ZAP70 AUC” value in the assay on phosphorylated ZAP70 [2] (setting [3]) amounted to 734; with phosphorylated ZAP70 [2] (setting [4]) it was 1641; with phosphorylated ZAP70 [2] (setting [5]), 1506; in the assay on phosphorylated ZAP70 [2] (setting [6]), 1870. Also, the “trend of maximal % pZAP70 with PK” value with phosphorylated ZAP70 [2] (not statistically significant, p=0.06) is “Positive trend”.
